Experimental findings from PubChem BioAssay AID1259407 (Chemical Carcinogenesis Research Information System (CCRIS), 2018) are described below.

SMILES strings stand for the structures. Calls of active or inactive are those of the source. How the calls were made is not given here.

The test system of the series is CCRIS mutagenicity, Ames/micronucleus/aberration tests. In words: CCRIS mutagenicity studies.
Where [1] appears, read: Test System: AMES SALMONELLA TYPHIMURIUM, Strain/Indicator: TA98, Metabolic Activation: NONE, Method: PREINCUBATION
Where [2] appears, read: Test System: AMES SALMONELLA TYPHIMURIUM, Strain/Indicator: TA100, Metabolic Activation: NONE, Method: PREINCUBATION
[3] abbreviates: Test System: AMES SALMONELLA TYPHIMURIUM, Strain/Indicator: TA100, Metabolic Activation: RAT, LIVER, S-9, AROCLOR 1254, Method: STANDARD PLATE.
[4] abbreviates: Test System: AMES SALMONELLA TYPHIMURIUM, Strain/Indicator: TA1537, Metabolic Activation: NONE, Method: STANDARD PLATE.

`O=C1NCNC(=O)N1`: the mutagenic call is “active; positive” (Test System: AMES SALMONELLA TYPHIMURIUM, Strain/Indicator: TA98, Metabolic Activation: MAIZE SEEDLING, S-14, Method: PREINCUBATION); “active; positive” (Test System: AMES SALMONELLA TYPHIMURIUM, Strain/Indicator: TA98, Metabolic Activation: MOUSE, LIVER, S-9, Method: PREINCUBATION); “inactive; negative” under setting [1]; “active; positive” (Test System: AMES SALMONELLA TYPHIMURIUM, Strain/Indicator: TA100, Metabolic Activation: MAIZE SEEDLING, S-14, Method: PREINCUBATION); “inactive; negative” (Test System: AMES SALMONELLA TYPHIMURIUM, Strain/Indicator: TA100, Metabolic Activation: MOUSE, LIVER, S-9, Method: PREINCUBATION); “inactive; negative” under setting [2]. Further, the mutagenic call (Test System: AMES SALMONELLA TYPHIMURIUM, Strain/Indicator: TA1535, Metabolic Activation: NONE, Method: PREINCUBATION) is “inactive; negative”; the mutagenic call (Test System: AMES SALMONELLA TYPHIMURIUM, Strain/Indicator: TA1537, Metabolic Activation: NONE, Method: PREINCUBATION) was “inactive; negative”; the mutagenic call (Test System: AMES SALMONELLA TYPHIMURIUM, Strain/Indicator: TA1538, Metabolic Activation: NONE, Method: PREINCUBATION) is “inactive; negative”.
Regarding `ON=C1CCCCC1`, the mutagenic call is “inactive; negative” (Test System: AMES SALMONELLA TYPHIMURIUM, Strain/Indicator: TA97, Metabolic Activation: HAMSTER, LIVER, S-9, AROCLOR 1254 (30%), Method: PREINCUBATION); “inactive; negative” (Test System: AMES SALMONELLA TYPHIMURIUM, Strain/Indicator: TA97, Metabolic Activation: NONE, Method: PREINCUBATION); “inactive; negative” (Test System: AMES SALMONELLA TYPHIMURIUM, Strain/Indicator: TA97, Metabolic Activation: RAT, LIVER, S-9, AROCLOR 1254 (30%), Method: PREINCUBATION); “inactive; negative” (Test System: AMES SALMONELLA TYPHIMURIUM, Strain/Indicator: TA98, Metabolic Activation: HAMSTER, LIVER, S-9, AROCLOR 1254 (30%), Method: PREINCUBATION); “inactive; negative” (Test System: AMES SALMONELLA TYPHIMURIUM, Strain/Indicator: TA98, Metabolic Activation: HAMSTER, LIVER, S-9, AROCLOR 1254, Method: STANDARD PLATE); “inactive; negative” under setting [1]. For the same compound, the mutagenic call reads like this: (Test System: AMES SALMONELLA TYPHIMURIUM, Strain/Indicator: TA98, Metabolic Activation: NONE, Method: STANDARD PLATE) “inactive; negative”; (Test System: AMES SALMONELLA TYPHIMURIUM, Strain/Indicator: TA98, Metabolic Activation: RAT, LIVER, S-9, AROCLOR 1254 (30%), Method: PREINCUBATION) “inactive; negative”; (Test System: AMES SALMONELLA TYPHIMURIUM, Strain/Indicator: TA98, Metabolic Activation: RAT, LIVER, S-9, AROCLOR 1254, Method: STANDARD PLATE) “inactive; negative”; (Test System: AMES SALMONELLA TYPHIMURIUM, Strain/Indicator: TA100, Metabolic Activation: HAMSTER LIVER S-9, AROCLOR 1254, Method: PREINCUBATION) “inactive; negative”; (Test System: AMES SALMONELLA TYPHIMURIUM, Strain/Indicator: TA100, Metabolic Activation: HAMSTER, LIVER, S-9, AROCLOR 1254 (30%), Method: PREINCUBATION) “inactive; negative”; (Test System: AMES SALMONELLA TYPHIMURIUM, Strain/Indicator: TA100, Metabolic Activation: HAMSTER, LIVER, S-9, AROCLOR 1254, Method: STANDARD PLATE) “inactive; negative”. For the same compound, the mutagenic call is, setting by setting: under setting [2], “inactive; negative”; (Test System: AMES SALMONELLA TYPHIMURIUM, Strain/Indicator: TA100, Metabolic Activation: NONE, Method: STANDARD PLATE) “inactive; negative”; (Test System: AMES SALMONELLA TYPHIMURIUM, Strain/Indicator: TA100, Metabolic Activation: RAT, LIVER, S-9, AROCLOR 1254 (30%), Method: PREINCUBATION) “inactive; negative”; under setting [3], “inactive; negative”; (Test System: AMES SALMONELLA TYPHIMURIUM, Strain/Indicator: TA1535, Metabolic Activation: HAMSTER LIVER S-9, AROCLOR 1254, Method: PREINCUBATION) “active; positive”; (Test System: AMES SALMONELLA TYPHIMURIUM, Strain/Indicator: TA1535, Metabolic Activation: HAMSTER, LIVER, S-9, AROCLOR 1254 (5,10 OR 30%), Method: PREINCUBATION) “active; positive”. Also, the mutagenic call is “inactive; negative” (Test System: AMES SALMONELLA TYPHIMURIUM, Strain/Indicator: TA1535, Metabolic Activation: HAMSTER, LIVER, S-9, AROCLOR 1254, Method: STANDARD PLATE); “inactive; negative” (Test System: AMES SALMONELLA TYPHIMURIUM, Strain/Indicator: TA1535, Metabolic Activation: NONE, Method: STANDARD PLATE); “inactive; negative” (Test System: AMES SALMONELLA TYPHIMURIUM, Strain/Indicator: TA1535, Metabolic Activation: RAT, LIVER, S-9, AROCLOR 1254 (30%), Method: PREINCUBATION); “inactive; negative” (Test System: AMES SALMONELLA TYPHIMURIUM, Strain/Indicator: TA1535, Metabolic Activation: RAT, LIVER, S-9, AROCLOR 1254, Method: STANDARD PLATE); “inactive; negative” (Test System: AMES SALMONELLA TYPHIMURIUM, Strain/Indicator: TA1537, Metabolic Activation: HAMSTER, LIVER, S-9, AROCLOR 1254, Method: STANDARD PLATE); “inactive; negative” under setting [4]. Further, the mutagenic call runs as follows: (Test System: AMES SALMONELLA TYPHIMURIUM, Strain/Indicator: TA1537, Metabolic Activation: RAT, LIVER, S-9, AROCLOR 1254, Method: STANDARD PLATE) “inactive; negative”; (Test System: AMES SALMONELLA TYPHIMURIUM, Strain/Indicator: TA1538, Metabolic Activation: HAMSTER, LIVER, S-9, AROCLOR 1254, Method: STANDARD PLATE) “inactive; negative”; (Test System: AMES SALMONELLA TYPHIMURIUM, Strain/Indicator: TA1538, Metabolic Activation: NONE, Method: STANDARD PLATE) “inactive; negative”; (Test System: AMES SALMONELLA TYPHIMURIUM, Strain/Indicator: TA1538, Metabolic Activation: RAT, LIVER, S-9, AROCLOR 1254, Method: STANDARD PLATE) “inactive; negative”; (Test System: MOUSE LYMPHOMA, Strain/Indicator: L5178Y (TK+/TK-), Metabolic Activation: NONE, Method: SUSPENSION/PLATE) “active; positive. reevaluation of results: positive”; (Test System: MOUSE LYMPHOMA, Strain/Indicator: L5178Y (TK+/TK-), Metabolic Activation: RAT, LIVER, S-9, AROCLOR 1254, Method: SUSPENSION/PLATE) “inactive; negative. reevaluation of results: negative”.
As to `Nc1ccc(Nc2c3ccccc3nc3ccccc23)cc1`, the mutagenic call under setting [4] is “active; positive”.
With `NC(N)=NCCCC(N)C(=O)O` (centres undefined), the mutagenic call (Test System: AMES SALMONELLA TYPHIMURIUM, Strain/Indicator: TA98, Metabolic Activation: RAT LIVER S-9, CHLOROPHENE, Method: STANDARD PLATE (COMPOUND HEATED AT 250 DEGREES CELSIUS FOR 20 MIN)) is “active; positive”; the mutagenic call (Test System: Ames Salmonella typhimurium, Strain/Indicator: TA98, Metabolic Activation: Rat, Liver, S9, Aroclor 1254, assay without cofactors, Method: Preincubation) is “inactive; negative”; the mutagenic call (Test System: Ames Salmonella typhimurium, Strain/Indicator: TA98, Metabolic Activation: Rat, Liver, S9, Aroclor 1254, heat inactivated, Method: Preincubation) was “inactive; negative”; the mutagenic call (Test System: Ames Salmonella typhimurium, Strain/Indicator: TA98, Metabolic Activation: Rat, Liver, S9, Aroclor 1254, Method: Preincubation) is “active; positive. statistically significant at 2 highest doses”.
`C[C@H](CCC(=O)O)[C@H]1CC[C@H]2[C@@H]3CC[C@@H]4CC(=O)CC[C@]4(C)[C@H]3C[C@@H](O)[C@]12C`: the mutagenic call by setting is: (Test System: AMES SALMONELLA TYPHIMURIUM, Strain/Indicator: TA98, Metabolic Activation: NONE, Method: FLUCTUATION TEST) “inactive; negative”; under setting [1], “inactive; negative”; (Test System: AMES SALMONELLA TYPHIMURIUM, Strain/Indicator: TA98, Metabolic Activation: RAT, LIVER, S-9, PCB, Method: PREINCUBATION) “inactive; negative”; (Test System: AMES SALMONELLA TYPHIMURIUM, Strain/Indicator: TA100, Metabolic Activation: NONE, Method: FLUCTUATION TEST) “inactive; negative”.
Consider `Cc1ccc2nc3c(ccc4ccccc43)c(CO)c2c1`, for which, under setting [3], the mutagenic call is “active; positive”.
